{"source": "ChEMBL document CHEMBL1201862", "about": "“PubChem BioAssay data set” (2004)", "key": {"HeLa": {"system": "HeLa", "experiment": "ATP-based viability loss in HeLa cells – cell-based, CellTiter-Glo luminescence, cherry-pick samples, cytotoxicity control for MITF activator project, dose response (AID 540259)", "assay_type": "functional", "details": "Homo sapiens"}, "[1]": {"target": "T1, Adenosylmethionine-8-amino-7-oxononanoate aminotransferase (Mycobacterium tuberculosis, UniProt P9WQ81)", "T1 sequence (P9WQ81 whole entry)": "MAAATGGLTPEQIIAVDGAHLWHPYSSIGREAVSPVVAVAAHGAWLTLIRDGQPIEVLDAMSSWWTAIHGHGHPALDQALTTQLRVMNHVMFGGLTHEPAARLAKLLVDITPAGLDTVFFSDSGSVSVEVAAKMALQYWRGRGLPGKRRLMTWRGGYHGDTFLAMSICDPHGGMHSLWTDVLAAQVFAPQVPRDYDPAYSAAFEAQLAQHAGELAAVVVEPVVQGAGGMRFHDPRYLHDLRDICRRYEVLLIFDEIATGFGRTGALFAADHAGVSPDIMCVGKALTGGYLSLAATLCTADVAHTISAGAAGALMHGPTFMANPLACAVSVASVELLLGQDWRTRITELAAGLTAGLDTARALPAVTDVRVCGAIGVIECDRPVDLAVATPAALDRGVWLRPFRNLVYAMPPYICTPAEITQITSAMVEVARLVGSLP", "experiment": "Mycobacterium tuberculosis BioA enzyme inhibitor Measured in Biochemical System Using Plate Reader - 2163-02_Inhibitor_Dose_CherryPick_Activity.", "assay_type": "functional, Mycobacterium tuberculosis UT205"}, "[2]": {"target": "Dual specificity tyrosine-phosphorylation-regulated kinase 1A (Rattus norvegicus, UniProt Q63470)", "assay_type": "biochemical, Homo sapiens"}, "[3]": {"target": "T2, Corticotropin-releasing factor receptor 2/Corticotropin-releasing factor-binding protein (Homo sapiens, UniProt P24387+Q13324)", "T2 sequence (Q13324 whole entry)": "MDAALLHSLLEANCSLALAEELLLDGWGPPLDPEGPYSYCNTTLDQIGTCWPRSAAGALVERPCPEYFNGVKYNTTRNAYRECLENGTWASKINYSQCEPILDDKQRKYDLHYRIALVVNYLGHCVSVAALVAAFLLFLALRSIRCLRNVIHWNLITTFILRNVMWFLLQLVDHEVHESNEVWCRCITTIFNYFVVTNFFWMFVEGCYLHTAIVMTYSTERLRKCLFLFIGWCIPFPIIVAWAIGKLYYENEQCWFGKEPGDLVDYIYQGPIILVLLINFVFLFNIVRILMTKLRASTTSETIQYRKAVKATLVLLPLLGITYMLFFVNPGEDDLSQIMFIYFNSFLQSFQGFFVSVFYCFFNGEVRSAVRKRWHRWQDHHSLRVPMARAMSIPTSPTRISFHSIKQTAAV", "T2 sequence (P24387 whole entry)": "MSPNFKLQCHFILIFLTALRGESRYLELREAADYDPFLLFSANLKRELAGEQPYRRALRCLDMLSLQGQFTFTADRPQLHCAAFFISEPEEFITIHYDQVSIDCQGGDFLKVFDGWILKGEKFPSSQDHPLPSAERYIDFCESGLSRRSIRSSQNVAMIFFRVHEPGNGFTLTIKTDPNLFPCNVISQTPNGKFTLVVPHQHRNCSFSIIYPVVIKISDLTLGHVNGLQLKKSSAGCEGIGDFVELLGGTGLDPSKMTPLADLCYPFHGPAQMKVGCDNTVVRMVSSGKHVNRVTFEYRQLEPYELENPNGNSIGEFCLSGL", "experiment": "activators of CRF receptor 2 with binding protein – uHTS hits, confirmation (AID 602473)", "assay_type": "functional", "details": "read-out: EC50_Mean"}, "[4]": {"experiment": "blockers of CRF-binding protein–CRF-R2 complex – cell-based, uHTS hits, 384-well, dose response (AID 651639)", "assay_type": "functional, Homo sapiens", "details": "read-out: IC50_Mean"}, "[5]": {"target": "T2, Corticotropin-releasing factor receptor 2/Corticotropin-releasing factor-binding protein", "experiment": "Dose Response confirmation of uHTS hits for small molecule antagonists of the CRF-binding protein and CRF-R2 receptor complex.", "assay_type": "functional", "details": "read-out: IC50_Mean"}, "[6]": {"experiment": "THP-1 cell cytotoxicity, dose response, cytotoxicity control for non-replicating M. tuberculosis project (AID 489025)", "assay_type": "functional"}, "Paired box protein Pax-8": {"target": "Paired box protein Pax-8 (Homo sapiens, UniProt Q06710)", "sequence (Q06710 whole entry)": "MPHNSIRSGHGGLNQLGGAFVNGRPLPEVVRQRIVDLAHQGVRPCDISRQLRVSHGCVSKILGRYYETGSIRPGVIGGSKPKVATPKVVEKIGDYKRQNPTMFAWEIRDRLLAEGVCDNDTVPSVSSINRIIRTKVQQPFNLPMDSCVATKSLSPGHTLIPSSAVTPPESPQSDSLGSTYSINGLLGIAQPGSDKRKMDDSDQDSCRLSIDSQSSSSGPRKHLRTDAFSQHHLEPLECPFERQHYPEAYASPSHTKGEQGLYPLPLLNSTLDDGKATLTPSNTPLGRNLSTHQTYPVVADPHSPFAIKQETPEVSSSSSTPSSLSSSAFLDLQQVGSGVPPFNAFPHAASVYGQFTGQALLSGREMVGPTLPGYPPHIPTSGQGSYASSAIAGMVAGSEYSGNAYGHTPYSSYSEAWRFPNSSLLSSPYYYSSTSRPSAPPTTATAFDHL", "experiment": "PAX8 transcriptional activity inhibition in RMG-I – RMG-I cells, luciferase, cherry-pick, dose response (AID 687027);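 also: luciferase reporter driven by Pax8 target thyroperoxidase promoter measured by SteadyGlo luminescence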", "assay_type": "functional, cell-based"}, "[7]": {"experiment": "HepG2 cell cytotoxicity, dose response, cytotoxicity control for non-replicating M. tuberculosis project (AID 489018)", "assay_type": "functional", "details": "Mycobacterium tuberculosis"}, "[8]": {"target": "T3, Rac GTPase-activating protein 1 (Homo sapiens, UniProt Q9H0H5)", "T3 sequence (Q9H0H5 whole entry)": "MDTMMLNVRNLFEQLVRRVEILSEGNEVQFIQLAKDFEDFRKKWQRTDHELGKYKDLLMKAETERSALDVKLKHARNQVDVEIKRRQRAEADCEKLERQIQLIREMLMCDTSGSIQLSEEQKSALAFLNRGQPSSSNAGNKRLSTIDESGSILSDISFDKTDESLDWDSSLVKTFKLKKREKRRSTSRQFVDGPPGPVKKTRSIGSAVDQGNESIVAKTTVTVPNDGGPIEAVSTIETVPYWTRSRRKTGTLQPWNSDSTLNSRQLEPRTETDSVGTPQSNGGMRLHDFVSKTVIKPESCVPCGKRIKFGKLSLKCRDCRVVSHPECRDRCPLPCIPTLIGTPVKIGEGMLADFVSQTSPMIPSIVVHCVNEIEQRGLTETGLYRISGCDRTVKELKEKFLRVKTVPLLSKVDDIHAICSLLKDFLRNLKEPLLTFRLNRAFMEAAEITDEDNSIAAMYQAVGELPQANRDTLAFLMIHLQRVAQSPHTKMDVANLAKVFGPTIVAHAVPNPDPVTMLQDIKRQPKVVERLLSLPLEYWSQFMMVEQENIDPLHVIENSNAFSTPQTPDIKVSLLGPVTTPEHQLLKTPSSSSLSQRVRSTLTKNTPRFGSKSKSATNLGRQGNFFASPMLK", "experiment": "blockers of MgcRacGAP-driven Rac1 GTP hydrolysis – biochemical, ADP Hunter fluorescence, primary and confirmatory, confirmation (AID 624330)", "assay_type": "functional"}, "HT-1080": {"system": "HT-1080", "experiment": "HT1080 cell viability loss – fluorescence readout (AID 620)", "assay_type": "functional, cell-based", "details": "Homo sapiens"}, "[9]": {"target": "Luciferin 4-monooxygenase (Photinus pyralis, UniProt P08659)", "sequence (P08659 whole entry)": "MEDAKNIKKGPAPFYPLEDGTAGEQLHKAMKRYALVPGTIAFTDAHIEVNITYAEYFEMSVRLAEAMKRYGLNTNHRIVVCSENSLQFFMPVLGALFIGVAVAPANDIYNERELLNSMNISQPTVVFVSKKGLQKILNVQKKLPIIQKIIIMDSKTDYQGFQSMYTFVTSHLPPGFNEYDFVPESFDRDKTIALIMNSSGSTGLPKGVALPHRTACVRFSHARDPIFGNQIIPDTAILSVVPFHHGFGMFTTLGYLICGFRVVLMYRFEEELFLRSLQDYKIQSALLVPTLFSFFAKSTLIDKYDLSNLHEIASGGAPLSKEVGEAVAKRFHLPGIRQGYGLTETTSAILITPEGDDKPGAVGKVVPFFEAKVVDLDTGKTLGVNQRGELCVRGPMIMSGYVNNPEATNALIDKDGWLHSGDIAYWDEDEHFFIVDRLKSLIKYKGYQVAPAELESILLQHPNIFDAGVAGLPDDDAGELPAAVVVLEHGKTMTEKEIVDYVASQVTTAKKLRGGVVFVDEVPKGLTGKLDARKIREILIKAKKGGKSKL", "experiment": "Counter Screen for Luciferase-based Assay Positives. [Related pubchem assays: 620, 618, 411 ]"}}, "note": "Activity calls are given as the source filed them.", "data": [{"smiles": "COc1ccc(C2=NN(c3ccccc3)C(c3ccc(OC)c(OC)c3)C2)cc1", "note": "(centres undefined)", "values": [{"measurement": "AC50", "setting": "HeLa", "result": "52 µM (active)"}]}, {"smiles": "CC(=O)c1ccc(NC(=O)C2CC(=O)N(Cc3ccccc3)C2)cc1", "note": "(centres undefined)", "values": [{"measurement": "AC50", "setting": "[1]", "result": "5.19 µM (active)"}]}, {"smiles": "N#C/C(=C/c1ccc(O)c([N+](=O)[O-])c1)C(=O)Nc1ccccc1", "values": [{"measurement": "AC50", "setting": "[2]", "result": "1.11 µM (active)"}]}, {"smiles": "COc1ccc(C(=O)NC(Oc2ccccc2)C(Cl)(Cl)Cl)cc1", "note": "(centres undefined)", "values": [{"measurement": "EC50", "setting": "[3]", "result": "> 53 µM (inactive)"}, {"measurement": "IC50", "setting": "[4]", "result": "14.5 µM (active)"}, {"measurement": "IC50", "setting": "[5]", "result": "5.81 µM (active)"}]}, {"smiles": "CCOC(=O)Nc1ccc2c(c1)N(C(=O)CCCl)c1ccccc1[S@]2=O", "values": [{"measurement": "CC50", "setting": "[6]", "result": "24.7 µM (active)"}, {"measurement": "AC50", "setting": "Paired box protein Pax-8", "result": "4.57 µM (active)"}, {"measurement": "CC50", "setting": "[7]", "result": "18.9 µM (active)"}]}, {"smiles": "C/C=C/c1ccc2c(c1)O[C@@H](CN(C)C(=O)c1ccc3c(c1)OCO3)[C@@H](C)CN([C@@H](C)CO)S2(=O)=O", "values": [{"measurement": "AC50", "setting": "[1]", "result": "5.33 µM (active)"}]}, {"smiles": "C/C(=N\\OCc1ccc(C#N)cc1)c1ccc(S(=O)(=O)N(C)C)cc1", "values": [{"measurement": "AC50", "setting": "HeLa", "result": "147 µM (active)"}]}, {"smiles": "O=C(Nc1ccc(O)cc1)c1cccc(Oc2ccc([N+](=O)[O-])cc2)c1", "values": [{"measurement": "EC50", "setting": "[3]", "result": "> 53 µM (inactive)"}, {"measurement": "IC50", "setting": "[8]", "result": "41.8 µM (active)"}, {"measurement": "IC50", "setting": "[4]", "result": "> 20 µM (inactive)"}, {"measurement": "IC50", "setting": "[5]", "result": "25.9 µM (active)"}]}, {"smiles": "Cc1ccc(C(=O)Nc2nc3c(s2)CCCC3)o1", "values": [{"measurement": "EC50", "setting": "HT-1080", "result": "> 50 µM (not active)"}, {"measurement": "EC50", "setting": "[9]", "result": "> 100 µM (not active)"}]}, {"smiles": "Cc1c(C(N)=O)sc(N)c1C(=O)OC(C)C", "values": [{"measurement": "AC50", "setting": "[1]", "result": "3.06 µM (active)"}]}, {"smiles": "O=c1c2c(O)cc(O)cc2oc2ccc(O)c(O[C@@H]3O[C@H](CO)[C@@H](O)[C@H](O)[C@H]3O[C@H]3O[C@H](CO)[C@@H](O)[C@H](O)[C@H]3O)c12", "values": [{"measurement": "AC50", "setting": "[2]", "result": "3.69 µM (active)"}]}]}
